# US20230053152A1, “Novel Quercetin Redox Derivative And Use Thereof As BET Inhibitor” (Benobio Co., Ltd., priority 2019, published 2023)
# Experiments:
# BRD4 (BD1) = target: T1, BRD4 (BD1) (Homo sapiens, UniProt O60885); assay: Binding inhibition of BRD4 (BD1), same manner as Test Example 1; conditions: AlphaScreen, acetyl-histone H4 peptide
# T1 construct: on the BRD4 (BD1, BD2, BD1+BD2) protein; GST
# BRD4 (BD1 + BD2) = target: T2, BRD4 (BD1 + BD2) (Homo sapiens, UniProt O60885); assay: Binding inhibition of BRD4 (BD1+BD2), same manner as Test Example 1; conditions: AlphaScreen, acetyl-histone H4 peptide
# T2 construct: on the BRD4 (BD1, BD2, BD1+BD2) protein; GST
# BRD2 (BD1) = target: T3, BRD2 (BD1) (Homo sapiens, UniProt P25440); assay: AlphaScreen binding inhibition of GST-BRD2 (BD1) and tetraacetylated histone H4 peptide; conditions: for IC50: AlphaScreen, acetyl-histone H4 peptide
# T3 construct: 100 nM GST-BRD2 (BD1, BD2, BD1+BD2)
# T3 sequence (P25440 74-180 limits assumed): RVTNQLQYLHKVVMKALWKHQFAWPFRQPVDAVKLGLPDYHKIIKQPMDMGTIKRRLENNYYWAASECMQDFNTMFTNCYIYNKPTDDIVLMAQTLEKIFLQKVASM
# BRD2 (BD1 + BD2) = target: T4, BRD2 (BD1 + BD2) (Homo sapiens, UniProt P25440); assay: AlphaScreen binding inhibition of GST-BRD2 (BD1+BD2) and tetraacetylated histone H4 peptide
# T4 construct: 100 nM GST-BRD2 (BD1, BD2, BD1+BD2)
# T4 sequence (P25440 74-453 limits assumed): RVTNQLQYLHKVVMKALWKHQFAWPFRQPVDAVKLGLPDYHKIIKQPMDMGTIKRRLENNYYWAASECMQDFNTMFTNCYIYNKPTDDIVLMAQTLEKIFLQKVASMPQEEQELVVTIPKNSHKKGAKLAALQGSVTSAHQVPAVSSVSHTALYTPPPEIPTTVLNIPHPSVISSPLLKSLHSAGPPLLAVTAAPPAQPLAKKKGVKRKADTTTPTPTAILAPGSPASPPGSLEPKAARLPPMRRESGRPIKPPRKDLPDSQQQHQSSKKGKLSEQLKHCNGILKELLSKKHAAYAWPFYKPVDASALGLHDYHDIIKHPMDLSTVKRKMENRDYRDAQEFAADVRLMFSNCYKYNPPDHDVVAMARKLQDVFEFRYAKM
# BRD3 (BD1 + BD2) = target: T5, BRD3 (BD1 + BD2) (Homo sapiens, UniProt Q15059); assay: Binding inhibition of BRD3 (BD1+BD2), same manner as Test Example 1; conditions: AlphaScreen, acetyl-histone H4 peptide
# T5 construct: on the BRD3 (BD1, BD2, BD1+BD2) protein; GST
# T5 sequence (Q15059 34-415 limits assumed): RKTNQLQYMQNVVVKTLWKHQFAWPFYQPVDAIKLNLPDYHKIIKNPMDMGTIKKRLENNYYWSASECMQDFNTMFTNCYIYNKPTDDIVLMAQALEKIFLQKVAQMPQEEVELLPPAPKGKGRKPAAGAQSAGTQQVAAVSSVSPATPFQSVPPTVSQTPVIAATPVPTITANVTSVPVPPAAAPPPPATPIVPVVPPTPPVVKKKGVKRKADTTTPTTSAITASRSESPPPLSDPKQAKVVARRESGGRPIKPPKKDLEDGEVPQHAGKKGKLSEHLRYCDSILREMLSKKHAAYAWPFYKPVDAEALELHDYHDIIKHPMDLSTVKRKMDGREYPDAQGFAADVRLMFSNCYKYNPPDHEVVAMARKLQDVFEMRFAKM
# BRD3 (BD1) = target: T6, BRD3 (BD1) (Homo sapiens, UniProt Q15059); assay: Binding inhibition of BRD3 (BD1), same manner as Test Example 1; conditions: AlphaScreen, acetyl-histone H4 peptide
# T6 construct: on the BRD3 (BD1, BD2, BD1+BD2) protein; GST
# T6 sequence (Q15059 34-140 limits assumed): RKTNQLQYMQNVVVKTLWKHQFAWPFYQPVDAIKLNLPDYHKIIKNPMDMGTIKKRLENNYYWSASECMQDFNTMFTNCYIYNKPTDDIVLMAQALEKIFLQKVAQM
# BRD2 (BD2) = target: T7, BRD2 (BD2) (Homo sapiens, UniProt P25440); assay: AlphaScreen binding inhibition of GST-BRD2 (BD2) and tetraacetylated histone H4 peptide; conditions: acetyl-histone H4 peptide
# T7 construct: 100 nM GST-BRD2 (BD1, BD2, BD1+BD2)
# T7 sequence (P25440 344-453 limits assumed): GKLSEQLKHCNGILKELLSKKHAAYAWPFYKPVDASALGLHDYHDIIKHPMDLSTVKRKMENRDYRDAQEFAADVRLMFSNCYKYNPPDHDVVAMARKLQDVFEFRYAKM
# BRD3 (BD2) = target: T8, BRD3 (BD2) (Homo sapiens, UniProt Q15059); assay: Binding inhibition of BRD3 (BD2), same manner as Test Example 1; conditions: AlphaScreen, acetyl-histone H4 peptide
# T8 construct: on the BRD3 (BD1, BD2, BD1+BD2) protein; GST
# T8 sequence (Q15059 306-415 limits assumed): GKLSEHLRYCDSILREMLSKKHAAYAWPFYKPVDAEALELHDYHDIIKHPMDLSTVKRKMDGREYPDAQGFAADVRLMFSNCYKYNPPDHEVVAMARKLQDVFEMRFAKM
IC50 (BRD2 (BD1)) [µM],IC50 (BRD3 (BD1)) [µM],Compound,also measured
4.14,7.98,"O=c1c(O)c(-c2ccc3[nH]ccc3c2)oc2cc(O)cc(O)c12 [BBC0114, 3,5,7-trihydroxy-2-(1H-indol-5-yl)chromen-4-one]",IC50 (BRD3 (BD1 + BD2)): 51.3 µM
8.88,,"O=c1c(O)c(-c2ccc(O)c(O)c2)oc2cc(O)ccc12 [BBC0105, 2-(3,4-dihydroxyphenyl)-3,7-dihydroxy-chromen-4-one]",
9.06,,"O=c1[nH]c2ccc(-c3oc4cc(O)cc(O)c4c(=O)c3O)cc2[nH]1 [BBC0110, 5-(3,5,7-trihydroxy-4-oxo-chromen-2-yl)-1,3-dihydrobenzimidazol-2-one]",IC50 (BRD3 (BD1 + BD2)): 20.1 µM; IC50 (BRD4 (BD1)): 15.5 µM; IC50 (BRD4 (BD1 + BD2)): 38.6 µM
4.63,1.9,"O=c1c(O)c(-c2ccc3ccoc3c2)oc2cc(O)cc(O)c12 [BBC0313, 2-(benzofuran-6-yl)-3,5,7-trihydroxy-chromen-4-one]",IC50 (BRD2 (BD2)): 0.499 µM
10.1,3.26,"O=c1c(O)c(-c2ccc3occc3c2)oc2cc(O)cc(O)c12 [BBC0310, 2-(benzofuran-5-yl)-3,5,7-trihydroxy-chromen-4-one]",
8.35,3.18,"O=c1c(O)c(-c2ccc(O)c(OC3COC3)c2)oc2cc(O)cc(O)c12 [BBC0303, 3,5,7-trihydroxy-2-[4-hydroxy-3-(oxetan-3-yloxy)phenyl]chromen-4-one]",IC50 (BRD3 (BD1 + BD2)): 95.6 µM
7.03,1.46,O=c1c(O)c(-c2ccc3c(c2)CCCO3)oc2cc(O)cc(O)c12 [BBC0309],
18.5,9.29,Cc1cc(-c2oc3cc(O)cc(O)c3c(=O)c2O)cc(OC2COC2)c1O [BBC0307],IC50 (BRD4 (BD1 + BD2)): 87.3 µM

# More lines, now with the values behind:
Compound,IC50 (BRD2 (BD1)) [µM],IC50 (BRD3 (BD1)) [µM],also measured
"COc1cc(OC)c2[nH]c(-c3cc(C)c(OCCO)c(C)c3)nc2c1 [BBC0206, reference compound]",,,IC50 (BRD4 (BD1)): > 50 µM; IC50 (BRD4 (BD1 + BD2)): > 20 µM
"O=c1c(O)c(-c2ccc3[nH]cnc3c2)oc2cc(O)cc(O)c12 [BBC0109, 2-(1H-benzodiimidazol-5-yl)-3,5,7-trihydroxy-4H-chromen-4-one]",8.63,,"IC50 value of BRD2 (BD1) as compared to the compound of Comparative Example 1 (BRD2 (BD1); relative to RVX-208): about 30%; IC50 (BRD2 (BD1 + BD2); AlphaScreen, acetyl-histone H4 peptide): 9.7 µM; IC50 value of BRD2 (BD1+BD2) as compared to the compound of Comparative Example 1 (BRD2 (BD1 + BD2); relative to RVX-208): about 30%; IC50 (BRD3 (BD1 + BD2)): 20.8 µM; IC50 (BRD4 (BD1 + BD2)): 15.6 µM"
"O=c1c(O)c(-c2ccc3cc[nH]c3c2)oc2cc(O)cc(O)c12 [BBC0115, 3,5,7-trihydroxy-2-(1H-indol-6-yl)chromen-4-one]",5.24,7.18,IC50 (BRD3 (BD1 + BD2)): 86 µM
"O=c1c(O)c(-c2ccc3c(c2)CCO3)oc2cc(O)cc(O)c12 [BBC0311, 2-(2,3-dihydrobenzofuran-5-yl)-3,5,7-trihydroxy-chromen-4-one]",5.85,7.2,IC50 (BRD2 (BD2)): 3.79 µM
"O=c1[nH]c2ccc(-c3oc4cc(O)cc(O)c4c(=O)c3O)cc2o1 [BBC0113, 6-(3,5,7-trihydroxy-4-oxo-chromen-2-yl)-3H-1,3-benzoxazol-2-one]",12.2,17.1,IC50 (BRD2 (BD2)): 5.11 µM
"COc1cc(OC)c2c(=O)[nH]c(-c3cc(C)c(OCCO)c(C)c3)cc2c1 [BBC0204, reference compound]",,,IC50 (BRD4 (BD1)): 35.1 µM; IC50 (BRD4 (BD1 + BD2)): 97.2 µM
"O=c1c(O)c(-c2ccc(O)c(O)c2)oc2cccc(O)c12 [BBC0104, 2-(3,4-dihydroxyphenyl)-3,5-dihydroxy-chromen-4-one]",8.52,,
"O=c1c(O)c(-c2ccc(OC3COC3)c(O)c2)oc2cc(O)cc(O)c12 [BBC0301, 3,5,7-trihydroxy-2-[13-hydroxy-4-(oxetan-3-yloxy)phenyl]chromen-4-one]",16.9,,IC50 (BRD3 (BD1 + BD2)): 29.4 µM; IC50 (BRD4 (BD1 + BD2)): 30.3 µM
"O=c1c(O)c(-c2ccc3c(c2)OCC3)oc2cc(O)cc(O)c12 [BBC0312, 2-(2,3-dihydrobenzofuran-6-yl)-3,5,7-trihydroxy-chromen-4-one]",3.69,2.64,
"COc1cc(OC)c2c(=O)[nH]c(-c3cc(C)c4c(c3)CCO4)nc2c1 [BBC0406, 5,7-dimethoxy-2-(7-methyl-2,3-dihydrobenzofuran-5-yl)-3H-quinazolin-4-one]",,11.1,
"Cc1cc(-c2oc3cc(O)cc(O)c3c(=O)c2O)cc(C)c1OC1COC1 [BBC0306, 2-[3,5-dimethyl-4-(oxetan-3-yloxy)phenyl]-3,5,7-trihydroxy-chromen-4-one]",2.71,1.41,IC50 (BRD3 (BD2)): 1.34 µM
"Cc1cc(-c2oc3cc(O)cc(O)c3c(=O)c2O)cc(O)c1OC1COC1 [BBC0305, 3,5,7-trihydroxy-2-[3-hydroxy-5-methyl-4-(oxetan-3-yloxy)phenyl]chromen-4-one]",6.55,3,
"O=c1c(O)c(-c2ccc(OC3COC3)cc2)oc2cc(O)cc(O)c12 [BBC0302, 3,5,7-trihydroxy-2-[4-(oxetan-3-yloxy)phenyl]chromen-4-one]",2.4,,
